Experimental data as given in publication PMC9151520 (Archives of Toxicology, 2022).
Values joined by “and” are separate entries in the source; they are usually repeats but may differ in a detail not shown here. Equal values may be shown once. Read-outs that look alike come from different tables or passages of the source.

Assays:
[1] = tested on: p53 signaling (p53RE-bla HCT-116 cells); assay: cells; format: cell-based
[2] = tested on: p53 signaling (p53RE-bla HCT-116 cells)
[3] = tested on: p53 signaling (p53RE-bla HCT-116 cells); remark: listed apart in the source
[4] = read-out: EC50, p53 activation, cherry pick confirmation
[5] = Homo sapiens, HCT-116, read-out: p53 activation EC50, cherry pick confirmation
[6] = Homo sapiens, HCT-116, read-out: p53 activation EC50, primary screening
[7] = Homo sapiens, HCT-116, read-out: p53 activation efficacy, cherry pick confirmation
[8] = Homo sapiens, HCT-116, read-out: p53 activation efficacy, primary screening
[9] = read-out: p53 activation EC50, cherry pick confirmation
[10] = read-out: p53 activation EC50, primary screening

SMILES	EC50 [1, 5] [µM]	EC50 [1, 6] [µM]	Emax [1, 7] [%]	Emax [1, 8] [%]	p53 activation EC50, cherry pick confirmation [2]	p53 activation EC50, primary screening [2]	p53 activation efficacy, cherry pick confirmation [2]	p53 activation efficacy, primary screening [2]	p53 activation EC50, cherry pick confirmation [3]	p53 activation EC50, primary screening [3]	p53 activation efficacy, cherry pick confirmation [3]	p53 activation efficacy, primary screening [3]	Viability EC50, cherry pick confirmation (p53RE-bla HCT-116 cells)	Viability EC50, primary screening (p53RE-bla HCT-116 cells)	Viability efficacy, cherry pick confirmation (p53RE-bla HCT-116 cells)	Viability efficacy, primary screening (p53RE-bla HCT-116 cells)	p53 activation efficacy, cherry pick confirmation [1]	also measured
COP(=S)(OC)Oc1ccc([N+](=O)[O-])cc1 [Methyl parathion]	–	–	–	–	–	–	–	–	–	–	–	–	–	–	–	–	–	p53 activation EC50 [1]: inactive; p53 activation efficacy [1]: inactive; EC50 [2]: 9.83 µM; p53 activation efficacy [2]: 52.7126 and 58.5263; p53 activation EC50 [3]: inactive; EC50 ([3]; read-out: p53 activation EC50): 7.98 µM; Viability EC50 (p53RE-bla HCT-116 cells): inactive; Viability efficacy (p53RE-bla HCT-116 cells): inactive
CCOP(=S)(OCC)Oc1cc(Cl)c(Br)cc1Cl [Bromophos-ethyl]	–	–	–	–	–	–	–	–	–	–	–	–	–	–	–	–	–	EC50, p53 activation, primary screening [1]: inactive; Efficacy, p53 activation, cherry pick confirmation [1]: 38.522; Efficacy, p53 activation, primary screening [1]: inactive; EC50 [1, 4]: 33.2 µM; EC50 [2]: 12.5 µM; EC50 [2, 4]: 6.31 µM; EC50, p53 activation, cherry pick confirmation [3]: inactive; EC50, viability, cherry pick confirmation (p53RE-bla HCT-116 cells): inactive; EC50, viability, primary screening (p53RE-bla HCT-116 cells): inactive; Efficacy, viability, cherry pick confirmation (p53RE-bla HCT-116 cells): inactive; Efficacy, viability, primary screening (p53RE-bla HCT-116 cells): inactive
C#C[C@]1(O)CC[C@H]2[C@@H]3CCc4cc(O)ccc4[C@H]3CC[C@@]21C [17alpha-Ethinylestradiol]	3.62	11.9	50.6	38.5	inactive	inactive	inactive	inactive	inactive	inactive	inactive	inactive	inactive	inactive	inactive	inactive	–	–
CC(=O)Oc1ccc(C2(c3ccc(OC(C)=O)cc3)Oc3ccccc3NC2=O)cc1 [Bisoxatin acetate]	0.665	3.99	31.4	63.9	inactive	inactive	inactive	inactive	inactive	inactive	inactive	inactive	inactive	inactive	inactive	inactive	–	–
S=c1[nH]cnc2nc[nH]c12 [6-Mercaptopurine]	9.76	7.97	41.7	80.4	inactive	inactive	inactive	inactive	inactive	inactive	inactive	inactive	inactive	inactive	inactive	inactive	–	–
CO/C=C(/C(=O)OC)c1ccccc1COc1cccc(C(F)(F)F)n1 [Picoxystrobin]	–	–	–	–	inactive	inactive	inactive	inactive	inactive	inactive	inactive	inactive	inactive	inactive	inactive	inactive	51.0407	p53 activation efficacy, primary screening [1]: 42.314; EC50 [1, 9]: 12.5 µM; EC50 [1, 10]: 4.78 µM
C[C@]12CC[C@@H]3c4ccc(O)cc4CC[C@H]3[C@@H]1CC[C@H]2O [17alpha-Estradiol]	–	12.3	–	54.4	inactive	inactive	inactive	inactive	inactive	inactive	inactive	inactive	inactive	inactive	inactive	inactive	inactive	p53 activation EC50, cherry pick confirmation [1]: inactive
CC(=O)OC[C@H]1O[C@@H](n2ncc(=O)[nH]c2=O)[C@H](OC(C)=O)[C@@H]1OC(C)=O [6-Azaribine]	0.603	0.432	79.7	60.2	inactive	inactive	inactive	inactive	inactive	inactive	inactive	inactive	inactive	inactive	inactive	inactive	–	–
N#CSCSC#N [Methylene bis(thiocyanate)]	–	–	–	–	inactive	inactive	inactive	inactive	inactive	inactive	inactive	inactive	–	–	–	–	39.736	p53 activation efficacy, primary screening [1]: 49.8917; EC50 [1, 9]: 10.1 µM; EC50 [1, 10]: 11.8 µM; EC50 (p53RE-bla HCT-116 cells; read-out: Viability EC50, cherry pick confirmation): 38.1 µM and 36 µM and 40.4 µM; EC50 (p53RE-bla HCT-116 cells; read-out: Viability EC50, primary screening): 39.6 µM and 47 µM and 35.4 µM
N[C@@H](Cc1ccc(N(CCCl)CCCl)cc1)C(=O)O [Melphalan]	15.6	17.8	43.3	46.7	inactive	inactive	inactive	inactive	inactive	inactive	inactive	inactive	inactive	inactive	inactive	inactive	–	–
